In US12109266B2, “Modulating gabarap to modulate immunogenic cell death” (Dana-Farber Cancer Institute, Inc., priority 2020, dated 2024):
“Also recorded” adds a separate entry of the source.

Legend:
[1] = tested on: AMO1 and NCI-H929 multiple myeloma cell lines; assay: Apoptosis assay (Annexin-V/7-AAD flow cytometry); assay type: cell-based, human; conditions: BTZ 1-10 nM, 16 h
Procedure: Apoptosis was evaluated by Annexin-V/7-Aminoactinomycin D (7-AAD) staining and flow cytometric analysis using the PE Annexin V Apoptosis Detection Kit I (BD Biosciences), following the manufacturer's instructions.
Apoptosis was evaluated by Annexin-V/7-Aminoactinomycin D (7-AAD) staining and flow cytometric analysis using the PE Annexin V Apoptosis Detection Kit I (BD Biosciences).

[2] = tested on: AMO1, H929 and KMS11 MM cells; assay: Phagocytosis assay of MM cells by monocyte-derived DCs; assay type: cell-based, human
Procedure: Mo-DCs were generated from CD14+ peripheral blood monocytes were positively selected using magnetic beads (Miltenyi Biotec) and cultured for 6 days in mo-DC differentiation medium containing GM-CSF and IL-4 (130-094-812; Miltenyi Biotec) to generate Mo-DCs. AMO1, KMS11 and H929 cells lines, as well as patient MM cells, were stained with CellTrace™ Far Red (ThermoFisher Scientific), cultured with or without BTZ (for 16 h), and then incubated in 48-well plates for 4 h at 1:1 ratio with CellTrace™ CFSE stained Mo-DCs. Cells were then collected, and phagocytosis analysis was performed by flow cytometry and confocal microscopy. Analagous phagocytosis experiments was performed using 5TGM1 murine MM and immature murine DC line JAWSII.
Collected cells were analyzed using the BD LRSFortessa™ X-20 flow cytometer. Mo-DCs that engulfed MM cells were CFSE and FAR-RED double positive. Fold increase in percentage of double positive DCs after co-culture with BTZ treated vs untreated MM cells was compared.
Mo-DCs were generated from CD14+ peripheral blood monocytes from healthy donors, positively selected using magnetic beads (Miltenyi Biotec), cultured for 6 days in mo-DC differentiation medium containing GM-CSF and IL-4 (130-094-812; Miltenyi Biotec). AMO1 and NCI-H929 cells lines, as well as patient MM cells, were stained with CellTrace™ Far Red (ThermoFisher Scientific), cultured with or without BTZ for 16 h, and then incubated in 48-well plates for 4 h at 1:1 ratio with CellTrace™ CFSE stained Mo-DCs. Cells were then collected, and phagocytosis analysis was performed by flow cytometry and confocal microscopy. Analagous phagocytosis experiments were performed using 5TGM1 murine multiple myeloma and JAWSII cell line that was used as source of immature murine DCs.
Flow cytometry-based assay: Collected cells were analyzed using the BD LRSFortessa X-20 flow cytometer. Mo-DCs that engulfed MM cells were CFSE and FAR-RED double positive. Fold increase in percentage of double positive DCs after co-culture with BTZ treated vs untreated MM cells was compared.

5TGM1 tumors = assay: RNA-seq analysis from mouse tumors; assay type: in vivo; conditions: immunocompetent mice
Procedure: Tumors growing from both 5TGM1 WT or calrKO cells in C57BL/KaLwRijHsd mice treated with either PBS or BTZ (3/group) were harvested and used to extract RNA using the RNeasy® kit (Qiagen). After passing quality control, RNAseq was performed using Illumina NextSeq 500 Single-End 75 bp (SE75) and analyzed following the VIPER NGS analysis pipeline (Cornwell et al. (2018) BMC Bioinform. 19:135) comparing BTZ-treated mice vs PBS in each experimental setting. Listing of differentially expressed genes (DEGs) were applied to gene set enrichment analysis (GSEA) and Cytoscape (Bindea et al. (2009) Bioinform. 25:1091-1093; Bindea et al. (2013) Bioinform. 29:661-663) software to reveal biological pathways modulated by BTZ.
Tumors growing from both 5TGM1 WT or Calr^KO cells in C57BL/KaLwRijHsd mice treated with either PBS or BTZ (3/group) were harvested and used to extract RNA using the RNeasy kit (Qiagen). After passing quality control, RNAseq was performed using Illumina NextSeq 500 Single-End 75 bp (SE75) and analyzed following the VIPER NGS analysis pipeline (Cornwell et al. (2018) BMC Bioinformatics; 19(1):135), comparing BTZ-treated mice vs PBS in each experimental setting. […] Analysis of expression of human orthologs of these 90 genes in MM patients and correlation with patient clinical outcome was then analyzed as detailed below. […]

cGAS/STING pathway = assay: Western blot of cGAS/STING pathway; assay type: cell-based, human
Procedure: Cell lysis was performed in RIPA buffer (Boston Bio Products) supplemented with Halt protease and phosphatase inhibitor cocktail (ThermoFisher Scientific). SDS-PAGE was performed on NuPage Bis-Tris gels (ThermoFisher Scientific) using MOPS or MES running buffer. Gels were dry transferred onto 0.45 μm nitrocellulose membranes using the iBlot® Dry Blotting System (ThermoFisher Scientific). The following Abs were purchased from Cell Signaling Technology: EIF2A (#5324), p-EIF2A (#3398), ATF4 (#11815), CHOP (2895), CALR (#12238), cGAS (#15102), TBK1 (#3504), pTBK1 (#5483), pIRF3 (#29047), STING (#13647). GAPDH (#2118) and B-ACTIN (#4970) were used as loading controls.

CC(C)C[C@H](NC(=O)[C@H](Cc1ccccc1)NC(=O)c1cnccn1)B(O)O [BTZ, bortezomib]
multiple myeloma cell death, as measured by phosphatidylserine exposure [1]: induced multiple myeloma cell death in a dose-dependent manner | phagocytosis of BTZ-treated MM cells by DCs ([2]; AMO1, NCI-H929 WT, BTZ 16 h, then 4 h co-culture): induces functional maturation of dendritic cells (DCs) in vitro; also recorded: enhanced uptake of BTZ-treated MM cells; also recorded: engulfed by monocyte-derived DCs after 4 h of co-culture | phagocytosis of BTZ-treated MM cells by DCs ([2]; AMO1 GABARAP^KO): did not stimulate phagocytosis by DCs; also recorded: GABARAP^KO abrogates phagocytosis by DCs | induction of ICD ([2]; GABARAP^KO in 2 ICD-sensitive cell lines (AMO1, H929)): abrogated the induction of ICD by BTZ | induction of ICD ([2]; KMS11 / GABARAP-null cells): resistant to induction of ICD by BTZ | induction of ICD ([2]; KMS11 / GABARAP-null cells, listed as Bortezomib): does not induce ICD in GABARAP-null cells | functional maturation of co-cultured DCs (phagocytosis assay) ([2]; KMS11 cells (monoallelic deletion of GABARAP)): did not lead to an increase of CRT exposure or functional maturation of co-cultured DCs | transcriptional changes in tumors (RNA-seq) (5TGM1 tumors; 5TGM1 Calr^KO tumors): decreased this effect | transcriptional changes in tumors (RNA-seq) (5TGM1 tumors; 5TGM1 WT tumors, two BTZ treatments 0.5 mg/kg): switched on a transcriptional program that is linked to the activation of an immune response; also recorded: consistent with activation of an immune response | cGAS/STING pathway activation (cGAS, pTBK1, pIRF3) (cGAS/STING pathway; AMO1 (BTZ 5-10 nM, 16 h) and NCI-H929 WT): induces accumulation of the cytosolic DNA sensor cGAS; also recorded: induces IFN-I signaling and promotes T cell activation via cGAS/STING pathway | cGAS level (cGAS/STING pathway; AMO1 STING^KO, BTZ 5 nM): significantly accumulated cGAS | p-TBK1 downstream signaling (cGAS/STING pathway; AMO1 STING^KO, BTZ 5 nM): blocked activation of downstream signaling including p-TBK1
